In PMC2865783, “Synthesis, Antiinflammatory and HIV-1 Integrase Inhibitory Activities of 1,2-Bis[5-thiazolyl]ethane-1,2-dione Derivatives” (Indian Journal of Pharmaceutical Sciences, 2009):
Read-outs that look alike come from different tables or passages of the source.

What was measured:
[1] = test system: carrageenan-induced rat-paw edema; assay: carrageenan-induced rat paw edema method; format: in vivo; conditions: for antiinflammatory activity (in words): carrageenan-induced rat paw edema, 100 mg/kg; for % PROTECTION: Table 3, all compounds screened at 100 mg/kg body weight
Description: (§1) Phenyl isothiocyanate was procured from Lancaster. Methyl isothiocyanate was gift sample from Hitesh Chemicals and Drugs Pvt Ltd, Hyderabad, India. Benzoylisothiocyanate, methoxycarbonyl isothiocyanate, ethoxy carbonyl isothiocyanate, N,N-diethyl actamidine, N,N-diethyl benzamidine, N,N-diethylphenyl acetamidine and 1,4-dibromo butane 2,3-dione were prepared in our lab following the reported procedures. Carrageenin was procured from Spectrochem India limited. HIV-1 integrase assay was done at Department of Pharmaceutical Sciences, School of Pharmacy, University of Southern California, Los Angeles, USA[18]. The reported protocol was followed for carrageenin-induced rat paw edema method[19] for evaluation of antiinflammatory activity. All compounds were screened in a group of 6 animals at dose of 100 mg/kg body weight of the animal. The experimental protocol was approved by the institutional animal ethics committee, constituted as per CPCSEA, Government of India.

HIV-1 integrase = target: T1, HIV-1 integrase (Human immunodeficiency virus type 1 group M subtype B, UniProt P12497); assay: extracellular HIV-1 integrase assay (3'-processing and strand transfer); format: biochemical
T1 construct: […]; AS MEASURED IN AN EXT[…]-1 INTEGRASE ASSAY
Source text: Integrase (IN) has emerged as an attractive target, because it is necessary for stable infection and homologous enzymes are lacking in the human host[11]. The function of IN is to catalyze integration of proviral DNA, resulting from the reverse transcription of viral RNA, into the host genome. This is achieved in a stepwise fashion by endonucleolytic processing of proviral DNA within a cytoplasmic preintegration complex (termed 3' P-processing or “3'-P”), followed by translocation of the complex into the nuclear compartment where integration of 3'-processed proviral DNA into host DNA occurs in a “strand transfer” (ST) reaction. […] (fig. 1B)[1112]. The presence of diketo pharmacophore in the synthesized compounds made us to screen these compounds in a HIV-1 integrase inhibitory assay.
as §1

[2] = test system: TNF-α release from human peripheral blood mononuclear cells; assay: TNF-α release from human peripheral blood mononuclear cells; format: cell-based
cPLA2 = target: T2, cPLA2 (Homo sapiens, UniProt P47712); assay: cPLA2 inhibition; format: biochemical
T2 sequence (P47712 1-749): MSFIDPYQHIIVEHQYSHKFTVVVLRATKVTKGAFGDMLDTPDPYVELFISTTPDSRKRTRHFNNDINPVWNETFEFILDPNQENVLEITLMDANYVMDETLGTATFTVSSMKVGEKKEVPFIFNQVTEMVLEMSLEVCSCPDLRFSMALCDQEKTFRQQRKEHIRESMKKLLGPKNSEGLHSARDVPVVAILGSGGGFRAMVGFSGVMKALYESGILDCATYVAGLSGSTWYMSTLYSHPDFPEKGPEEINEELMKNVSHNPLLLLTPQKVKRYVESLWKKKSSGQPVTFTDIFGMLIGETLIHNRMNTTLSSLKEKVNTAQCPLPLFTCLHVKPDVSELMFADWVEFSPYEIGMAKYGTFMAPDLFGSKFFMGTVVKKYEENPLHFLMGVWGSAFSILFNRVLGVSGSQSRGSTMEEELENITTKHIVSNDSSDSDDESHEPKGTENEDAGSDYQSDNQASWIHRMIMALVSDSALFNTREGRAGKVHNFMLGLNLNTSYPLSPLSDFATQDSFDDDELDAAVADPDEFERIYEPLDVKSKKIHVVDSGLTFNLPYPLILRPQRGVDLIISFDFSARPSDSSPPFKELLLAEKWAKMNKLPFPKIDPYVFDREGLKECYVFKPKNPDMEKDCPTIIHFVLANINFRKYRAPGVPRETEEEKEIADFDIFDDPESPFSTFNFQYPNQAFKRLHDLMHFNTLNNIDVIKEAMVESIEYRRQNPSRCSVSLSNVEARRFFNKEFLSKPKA

[3] = 100 mg/kg b.w, rat paw edema, group of 6 animals, read-out: % PROTECTION Dose 100 mg/kg b.w
[4] = Rattus norvegicus, 100 mg/kg body weight, read-out: protection in the carrageenan rat paw model
[5] = 3'-processing step, read-out: 3'P inhibitory potency
[6] = strand transfer step, read-out: ST inhibitory potency
[7] = rat paw edema, group of 6 animals

Row | Structure (SMILES) | inhibition in vivo at 100 mg/kg [1, 3] [%] | inhibition in vivo at 100 mg/kg [1, 4] [%] | also measured
1 | O=C(C(=O)c1sc(Nc2ccccc2)nc1-c1ccccc1)c1sc(Nc2ccccc2)nc1-c1ccccc1 [G-7] | 70 ± 0.7 | > 50 | antiinflammatory activity (in words) [1]: good antiinflammatory activity
2 | CCOC(=O)Nc1nc(C)c(C(=O)C(=O)c2sc(NC(=O)OCC)nc2C)s1 [G-5] | 33 ± 0.9 | – | –
3 | Cc1nc(Nc2ccccc2)sc1C(=O)C(=O)c1sc(Nc2ccccc2)nc1C [G-2] | 23 ± 8 | – | –
4 | O=C(Nc1nc(Cc2ccccc2)c(C(=O)C(=O)c2sc(NC(=O)c3ccccc3)nc2Cc2ccccc2)s1)c1ccccc1 [G-15] | 47 ± 2.3 | – | –
5 | O=C(C(=O)c1sc(N2CCN(c3ccccc3)CC2)nc1-c1ccccc1)c1sc(N2CCN(c3ccccc3)CC2)nc1-c1ccccc1 [G-20] | – | > 50 | IC50 (HIV-1 integrase; [5]): 122 µM; IC50 (HIV-1 integrase; [6]): 87 µM; % PROTECTION [1, 7]: 55±4%
6 | O=C(C(=O)c1sc(Nc2ccc(Cl)cc2)nc1Cc1ccccc1)c1sc(Nc2ccc(Cl)cc2)nc1Cc1ccccc1 [G-12] | 72 ± 1 | > 50 | antiinflammatory activity (in words) [1]: good antiinflammatory activity
7 | O=C(C(=O)c1sc(N2CCOCC2)nc1-c1ccccc1)c1sc(N2CCOCC2)nc1-c1ccccc1 [G-17] | – | > 50 | effect on TNF-α release [2]: did not have any effect; IC50 (HIV-1 integrase; [5]): > 500 µM; IC50 (HIV-1 integrase; [6]): 109 µM; % PROTECTION [1, 7]: 81±0.5%
8 | CCOC(=O)Nc1nc(Cc2ccccc2)c(C(=O)C(=O)c2sc(NC(=O)OCC)nc2Cc2ccccc2)s1 [G-14] | 38 ± 2 | – | –
9 | COC(=O)Nc1nc(Cc2ccccc2)c(C(=O)C(=O)c2sc(NC(=O)OC)nc2Cc2ccccc2)s1 [G-13] | 35 ± 2.5 | – | –
10 | O=C(C(=O)c1sc(Nc2ccccc2)nc1Cc1ccccc1)c1sc(Nc2ccccc2)nc1Cc1ccccc1 [G-11] | 23 ± 2 | – | –
11 | CCN1CCN(c2nc(-c3ccccc3)c(C(=O)C(=O)c3sc(N4CCN(CC)CC4)nc3-c3ccccc3)s2)CC1 [G-19] | – | > 50 | effect on TNF-α release [2]: did not have any effect; % PROTECTION [1, 7]: 72±0.5%
12 | O=C(C(=O)c1sc(N2CCCCC2)nc1-c1ccccc1)c1sc(N2CCCCC2)nc1-c1ccccc1 [G-16] | – | > 50 | % PROTECTION [1, 7]: 65±0.8%
13 | COC(=O)Nc1nc(C)c(C(=O)C(=O)c2sc(NC(=O)OC)nc2C)s1 [G-4] | 40 ± 2 | – | –
14 | Cc1nc(Nc2ccc(Cl)cc2)sc1C(=O)C(=O)c1sc(Nc2ccc(Cl)cc2)nc1C [G-3] | 73 ± 0.3 | – | IC50 (HIV-1 integrase; [5]): 132 µM; IC50 (HIV-1 integrase; [6]): 397 µM
15 | O=C(C(=O)c1sc(Nc2ccc(Cl)cc2)nc1-c1ccccc1)c1sc(Nc2ccc(Cl)cc2)nc1-c1ccccc1 [G-8] | 66 ± 1 | > 50 | –
16 | O=C(Nc1nc(-c2ccccc2)c(C(=O)C(=O)c2sc(NC(=O)c3ccccc3)nc2-c2ccccc2)s1)c1ccccc1 [G-6] | 74 ± 0.5 | > 50 | effect on TNF-α release [2]: did not have any effect; IC50 (HIV-1 integrase; [5]): > 500 µM; IC50 (HIV-1 integrase; [6]): 277 µM; melting point: 234 to 236 °C; cPLA2 inhibition (in words) (cPLA2): weakly inhibited
17 | O=C(C(=O)c1sc(N2CCN(Cc3ccccc3)CC2)nc1-c1ccccc1)c1sc(N2CCN(Cc3ccccc3)CC2)nc1-c1ccccc1 [G-21] | – | > 50 | % PROTECTION [1, 7]: 85±0.3%
18 | CNc1nc(C)c(C(=O)C(=O)c2sc(NC)nc2C)s1 [G-1] | 14 ± 7 | – | –
19 | CCOC(=O)Nc1nc(-c2ccccc2)c(C(=O)C(=O)c2sc(NC(=O)OCC)nc2-c2ccccc2)s1 [G-10] | 34 ± 4 | – | –
20 | CN1CCN(c2nc(-c3ccccc3)c(C(=O)C(=O)c3sc(N4CCN(C)CC4)nc3-c3ccccc3)s2)CC1 [G-18] | – | > 50 | % PROTECTION [1, 7]: 60±0.5%
21 | COC(=O)Nc1nc(-c2ccccc2)c(C(=O)C(=O)c2sc(NC(=O)OC)nc2-c2ccccc2)s1 [G-9] | 26 ± 3 | – | –
